In US10058558B2, “Pharmaceutical composition comprising N1-cyclic amine-N5-substituted biguanide derivatives as an ingredient for preventing or treating fibrosis” (ImmunoMet Therapeutics Inc., priority 2013, dated 2018):
Where two headings read alike, the source gives them in different places.

Columns and labels:
Snail = Snail expression in MCF7 cells (EMT-suppressing effect)
[1] = tested on: peritoneal mesothelial cells
Procedure: That is, this experiment was designed to examine the morphological change in the peritoneal mesothelial cells by high glucose treatment along with the expression levels of mRNA and proteins of fibrosis-mediating materials and the ECM-related materials.
To this end, the peritonea of the male wistar rats were dissected and their peritoneal mesothelial cells were subjected to primary culture using 0.25% trypsin-EDTA. The experiment was performed after dividing them into the following three groups:

## CC(=O)O.N=C(NC(=N)N1CCCC1)Nc1ccc(OC(F)(F)F)cc1 [Example 44, N1-pyrrolidine-N5-(4-trifluoromethoxy)phenyl biguanide acetate [N-(N-(4-(trifluoromethoxy)phenyl)carbamimidoyl)pyrrolidine-1-carboximidamideacetate]]
Snail
  suppression of the expression of Snail: strongly suppress the expression of Snail
[1]
  morphology of peritoneal mesothelial cells turned into myofibroblasts by high glucose treatment: returned to maintain a shape similar to that of the normal ones (a cobblestone shape)

## CN(C)C(=N)N=C(N)N [metformin]
Snail; MCF7 cells, 1000 μM, FIG. 1
  suppression of the expression of Snail: failed to suppress the expression of Snail

## [H]/N=C(/N)N/C(=N/[H])NCCc1ccccc1 [phenformin]
Snail; MCF7 cells, 10 μM, FIG. 1
  suppression of the expression of Snail: did not show any effect regarding the suppression of Snail expression
